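All cell lines were grown in 96-well plates and treated with compound for 48 hours. The concentration for full growth arrest is given as TGI.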
Experiments:
Assay in all cases: DTP human tumour cell line panel, 48 h
[1] = system: NCI/ADR-RES ovarian
[2] = system: T-47D breast
[3] = system: PC-3 prostate
[4] = system: A549 NSCLC
[5] = system: OVCAR-3 ovarian
[6] = system: NCI-H23 lung
[7] = system: IGROV1 ovarian
[8] = system: SK-MEL-2 melanoma
[9] = system: KM12 colon
[10] = system: U251 CNS
[11] = system: CCRF-CEM leukemia
[12] = system: SK-MEL-5 melanoma
[13] = system: OVCAR-8 ovarian
[14] = system: HT29 colon
[15] = system: OVCAR-5 ovarian
[16] = system: SN12C renal
[17] = system: NCI-H460 lung
[18] = system: MDA-MB-435
[19] = system: M14 melanoma
[20] = system: SNB-75 CNS
[21] = system: HCT-15 colon
[22] = system: HCC-2998 colon
[23] = system: MDA-N
[24] = system: A498 renal
[25] = system: MDA-MB-231 breast
[26] = system: HOP-62 NSCLC
[27] = system: 786-0 renal
[28] = system: EKVX NSCLC
[29] = system: SNB-19 CNS
[30] = system: OVCAR-4 ovarian
[31] = system: HCT-116 colon
[32] = system: UACC-257 melanoma
[33] = system: RPMI-8226 leukemia
[34] = system: SR leukemia
[35] = system: MOLT-4 leukemia
[36] = system: ACHN renal
[37] = system: UACC-62 melanoma
[38] = system: TK-10 renal
[39] = system: NCI-H522 lung
[40] = system: SF-539 CNS
[41] = system: HL-60(TB) leukemia
[42] = system: MALME-3M melanoma
[43] = system: HOP-92 NSCLC
[44] = system: NCI-H226 lung
[45] = system: UO-31 renal
[46] = system: BT-549 breast
[47] = system: SK-OV-3 ovarian
[48] = system: SK-MEL-28 melanoma
[49] = system: DU-145 prostate
[50] = system: COLO 205 colon
[51] = system: K-562 leukemia
[52] = system: RXF 393 renal
[53] = system: MCF7 breast
[54] = system: HS 578T breast
[55] = system: SF-295 CNS
[56] = system: LOX IMVI melanoma
[57] = system: SW-620 colon
[58] = system: SF-268 CNS
[59] = system: LXFL 529 NSCLC
[60] = system: KM20L2 colon
[61] = system: SNB-78 CNS
[62] = system: M19-MEL melanoma

N#CC12CC=C(c3ccccc3)N=C1NC(c1ccccc1)=CC2 (configuration not stated)
TGI [1]: > 100 µM | TGI [2]: > 100 µM | TGI [3]: > 100 µM | TGI [4]: > 100 µM | TGI [5]: > 100 µM | TGI [6]: > 100 µM | TGI [7]: > 100 µM | TGI [8]: > 100 µM | TGI [9]: > 100 µM | TGI [10]: > 100 µM | TGI [11]: 77.7 µM | TGI [12]: 39.4 µM | TGI [13]: > 100 µM | TGI [14]: > 100 µM | TGI [15]: > 100 µM | TGI [16]: > 100 µM | TGI [17]: > 100 µM | TGI [18]: > 100 µM | TGI [19]: > 100 µM | TGI [20]: > 100 µM | TGI [21]: > 100 µM | TGI [22]: > 100 µM | TGI [23]: > 100 µM | TGI [24]: 97 µM | TGI [25]: > 100 µM | TGI [26]: > 100 µM | TGI [27]: > 100 µM | TGI [28]: > 100 µM | TGI [29]: > 100 µM | TGI [30]: > 100 µM | TGI [31]: > 100 µM | TGI [32]: > 100 µM | TGI [33]: 73.8 µM | TGI [34]: 82.2 µM | TGI [35]: 55.1 µM | TGI [36]: > 100 µM | TGI [37]: > 100 µM | TGI [38]: > 100 µM | TGI [39]: > 100 µM | TGI [40]: > 100 µM | TGI [41]: 50.5 µM | TGI [42]: > 100 µM | TGI [43]: 92.2 µM | TGI [44]: > 100 µM | TGI [45]: > 100 µM | TGI [46]: > 100 µM | TGI [47]: > 100 µM | TGI [48]: > 100 µM | TGI [49]: > 100 µM | TGI [50]: > 100 µM | TGI [51]: > 100 µM | TGI [52]: > 100 µM | TGI [53]: > 100 µM | TGI [54]: > 100 µM | TGI [55]: > 100 µM | TGI [56]: > 100 µM | TGI [57]: > 100 µM | TGI [58]: > 100 µM

COc1ccc2c(c1)CC[C@@H]1C2CC[C@]2(C)C(=O)N(CCN3CCCCC3)C(=O)CC12 (some centres not stated)
TGI [59]: > 100 µM | TGI [6]: > 100 µM | TGI [7]: > 100 µM | TGI [8]: > 100 µM | TGI [9]: > 100 µM | TGI [10]: > 100 µM | TGI [11]: > 100 µM | TGI [14]: > 100 µM | TGI [15]: > 100 µM | TGI [17]: > 100 µM | TGI [19]: 48.9 µM | TGI [20]: > 100 µM | TGI [24]: > 100 µM | TGI [60]: > 100 µM | TGI [26]: > 100 µM | TGI [27]: > 100 µM | TGI [29]: > 100 µM | TGI [30]: > 100 µM | TGI [31]: > 100 µM | TGI [32]: 63.4 µM | TGI [33]: > 100 µM | TGI [34]: > 100 µM | TGI [36]: > 100 µM | TGI [37]: 41.7 µM | TGI [39]: > 100 µM | TGI [40]: > 100 µM | TGI [41]: 61.1 µM | TGI [42]: > 100 µM | TGI [43]: > 100 µM | TGI [45]: > 100 µM | TGI [47]: > 100 µM | TGI [48]: > 100 µM | TGI [61]: > 100 µM | TGI [50]: > 100 µM | TGI [51]: > 100 µM | TGI [52]: 99.2 µM | TGI [62]: > 100 µM | TGI [55]: > 100 µM | TGI [58]: > 100 µM

Source: PubChem BioAssay (NCI)
